Publication PMC7311426, “An amphipathic peptide with antibiotic activity against multidrug-resistant Gram-negative bacteria” (Nature Communications, 2020)
Values after ≈ are worked out from the molar mass of the structure shown. Residues, ends and D or L forms follow the SMILES beside them.

What was measured:
A. baumannii = experiment: microbe, parasite or virus in culture
Procedure: (§1) Antimicrobial activity of arenicin-3 and its analogs was tested against a panel of bacterial and yeast strains by in vitro broth microdilution (BMD) assay with minimum inhibitory concentration (MIC) determination. Strains were purchased from American Type Culture Collection (ATCC) or obtained from clinical collaborators (full strain profiles provided in Supplementary Data 3). All peptides were prepared in Ringer’s acetate solution, and subsequently diluted fresh in water for each independent assay.
(§2) Assays were performed in Mueller Hinton broth (MHB; BD, Cat. No. 211443) for bacteria, and yeast extract-peptone dextrose (YPD; Sigma-Aldrich, Y1500) for yeast. The concentrations of the peptides and comparator antibiotics/antifungals in the assay wells ranged from either 128 or 64 μg mL^−1, to 0.06 or 0.03 μg mL^−1 as a 12-point dose response plated as a 2-fold dilution series across the wells of the plate in duplicate for each independent biological replicate, using a final cell density of 5 × 10^5 CFU mL^−1 and 2.5 × 10^3 CFU mL^−1 for bacteria and yeast respectively. Final assay volumes were 100 μL per well with MICs determined visually following 18-20 h incubation at 37 °C for bacteria, 24 h incubation at 35 °C for Candida albicans, and 24 h incubation at 35 °C with resazurin addition (0.006%; Sigma-Aldrich, Cat # R7017) for a further 3 h for Cryptococcus neoformans, without shaking. Additional bacterial and yeast susceptibility assays were performed in Cation-Adjusted Mueller Hinton Broth (CAMHB; BD, Cat No. 212322) and Roswell Park Memorial Institute (RPMI) 1640 culture medium (Life Technologies Australia, Cat No. 21870092), respectively, as recommended by CLSI guidelines (M07 11th ed[36] and M27 4th ed[37]). […] Agarose MICs were determined in MHB with 1% agarose (Bioline molecular grade; Cat no: BIO-41025; high purity, high gel strength). All experiments were performed a minimum of six replicates (n ≥ 6).

C. albicans = experiment: microbe, parasite or virus in culture; details: 24 h
Procedure: as §1, §2

E. coli = experiment: microbe, parasite or virus in culture
Procedure: as §1, §2

K. pneumoniae = experiment: microbe, parasite or virus in culture
Procedure: as §1, §2

P. aeruginosa = experiment: microbe, parasite or virus in culture
Procedure: as §1, §2

S. aureus = experiment: microbe, parasite or virus in culture
Procedure: as §1, §2

E. coli ATCC 25922 = experiment: microbe, parasite or virus in culture; assay type: cell-based, Escherichia coli; details: ATCC 25922
Procedure: Assays were performed in Mueller Hinton broth (MHB; BD, Cat. No. 211443) for bacteria, and yeast extract-peptone dextrose (YPD; Sigma-Aldrich, Y1500) for yeast. The concentrations of the peptides and comparator antibiotics/antifungals in the assay wells ranged from either 128 or 64 μg mL^−1, to 0.06 or 0.03 μg mL^−1 as a 12-point dose response plated as a 2-fold dilution series across the wells of the plate in duplicate for each independent biological replicate, using a final cell density of 5 × 10^5 CFU mL^−1 and 2.5 × 10^3 CFU mL^−1 for bacteria and yeast respectively. Final assay volumes were 100 μL per well with MICs determined visually following 18-20 h incubation at 37 °C for bacteria, 24 h incubation at 35 °C for Candida albicans, and 24 h incubation at 35 °C with resazurin addition (0.006%; Sigma-Aldrich, Cat # R7017) for a further 3 h for Cryptococcus neoformans, without shaking. Additional bacterial and yeast susceptibility assays were performed in Cation-Adjusted Mueller Hinton Broth (CAMHB; BD, Cat No. 212322) and Roswell Park Memorial Institute (RPMI) 1640 culture medium (Life Technologies Australia, Cat No. 21870092), respectively, as recommended by CLSI guidelines (M07 11th ed[36] and M27 4th ed[37]). […] However, for yeast it was determined that the YPD media was more reliable and robust between repeats and therefore MICs in this media are reported. […] Agarose MICs were determined in MHB with 1% agarose (Bioline molecular grade; Cat no: BIO-41025; high purity, high gel strength). All experiments were performed a minimum of six replicates (n ≥ 6).

in vitro = details: human
Procedure: (§3) HEK-293 human embryonic kidney cells (ATCC CRL-1573), HepG2 liver hepatocellular carcinoma cells (ATCC HB-8065), and HK-2 human kidney proximal tubule cells (ATCC CRL-2190) cell lines were purchased from ATCC. Cytotoxicity of arenicin-3 variants was determined using the Alamar Blue (resazurin; Sigma-Aldrich, Cat # R7017), with 1% FBS for HK-2 and 10% FBS for HEK-293, and HepG2[40]. Cells were seeded as 2000 cells per well in black wall clear bottom 384-well plates (Corning®, Costar®, Cat # 3712). The cells were incubated for 24 h at 37 °C, 5% CO2. Then peptides were added into each cell containing well. After 24 h incubation, 5 μM resazurin were added per well and incubated at 37 °C for 2 h. Then the fluorescence intensity (FI) was read using a Polarstar® Omega plate reader with excitation/emission 560/590 and CC50 values were determined using Prism 8 following curve fitting and applying the following equation: Percentageviability = (FITEST-FINegative/FIUNTREATED-FINegative)×100.
(§4) Hemolytic activity was measured against isolated human erythrocytes from anonymously donated fresh human blood. Isolated erythrocytes were adjusted to 1 × 10^9 blood cells mL^−1 in phosphate-buffered saline (PBS, pH 7.4), added to the wells of NUNC polypropylene round-bottom 96-well plates (Sigma-Aldrich, Cat # P6866) then up to 300 μg mL^−1 of compound was added per well and incubated for 3 h at 37 °C. Following incubation, samples were centrifuged at 3000 rpm for 20 min, and the supernatants, 100 μL, were carefully collected for measurement. The degree of hemolysis in the samples was determined by measurement of the absorption of the supernatants at 540 nm using the Polarstar-Omega plate reader. 1% Triton-X100 was used as positive control for inducing 100% hemolysis. HC10 and HC50 values were determined using Prism 8 following curve fitting. The use of human blood (sourced from the Australian Red Cross Blood Service) for hemolysis assays was approved by the University of Queensland Institutional Human Research Ethics Committee, Approval Number 2014000031. All in vitro toxicity assays were performed for two independent biological replicates as an 8-point dose response of 3-fold dilution series in triplicate with the highest test concentration of 300 μg mL^−1.

[1] = system: HEK-293 human embryonic kidney cells; experiment: in vitro
Procedure: as §3, §4

[2] = system: HK-2 human kidney proximal tubule cells; experiment: in vitro
Procedure: as §3, §4

[3] = system: HepG2 liver hepatocellular carcinoma cells; experiment: in vitro
Procedure: as §3, §4

[4] = system: human erythrocytes (HRBC); assay type: cell-based; details: for Heamolysis HC10: red cells of human, 3 h

Compound	BMD MIC (A. baumannii)	BMD MIC (C. albicans)	BMD MIC (E. coli)	BMD MIC (K. pneumoniae)	BMD MIC (P. aeruginosa)	BMD MIC (S. aureus)	MIC, MHB (E. coli ATCC 25922)	CC50 at 24 h (in vitro; HEK-293 cells)	CC50 at 24 h (in vitro; HK-2 cells)	CC50 at 24 h (in vitro; HepG2 cells)	CC50 HEK293 [1]	CC50 HEK293, Mean [1]	CC50 HK2 [2]	CC50 HK2, Mean [2]	CC50 HepG2 [3]	CC50 HepG2, Mean [3]	Heamolysis HC10, Mean [4]	Heamolysis HC10 [4]
CC(C)[C@@H]1NC(=O)CNC(=O)[C@H](CC(N)=O)NC(=O)[C@H](CCCNC(=N)N)NC(=O)[C@H](CCCNC(=N)N)NC(=O)[C@H](C)NC(=O)[C@@H]2CSSC[C@H](NC(=O)[C@H](C(C)C)NC(=O)[C@H](CCCNC(=N)N)NC1=O)C(=O)N[C@@H](Cc1ccc(O)cc1)C(=O)N[C@@H](CCCNC(=N)N)C(=O)N[C@@H](CCCNC(=N)N)C(=O)N[C@H](C(=O)N[C@@H](CC(N)=O)C(=O)O)CSSC[C@H](NC(=O)[C@H](Cc1ccccc1)NC(=O)CN)C(=O)N[C@@H](Cc1c[nH]c3ccccc13)C(=O)N[C@@H](Cc1c[nH]cn1)C(=O)N[C@@H](C(C)C)C(=O)N2 [NZ17224] (HELM PEPTIDE1{G.F.C.W.H.V.C.A.R.R.N.G.V.R.V.C.Y.R.R.C.N}$PEPTIDE1,PEPTIDE1,3:R3-20:R3|PEPTIDE1,PEPTIDE1,7:R3-16:R3$$$V2.0)	0.5 µg/mL	32 µg/mL	0.06 µg/mL	0.25 µg/mL	0.25 µg/mL	64 µg/mL	0.06 µg/mL (≈ 0.0235 µM)	> 300 µg/mL	> 250 µg/mL	> 300 µg/mL	>300 µg/mL	>300 µg/mL	>255 µg/mL	>250 µg/mL	>300 µg/mL	>300 µg/mL	>300 µg/mL	>300 µg/mL
CC(C)[C@@H]1NC(=O)CNC(=O)[C@H](CC(N)=O)NC(=O)[C@H](CCCNC(=N)N)NC(=O)[C@H](CCCCN)NC(=O)[C@H](C(C)C)NC(=O)[C@@H]2CSSC[C@H](NC(=O)[C@H](CO)NC(=O)[C@H](CCCNC(=N)N)NC1=O)C(=O)N[C@@H](Cc1ccc(O)cc1)C(=O)N[C@@H](CCCNC(=N)N)C(=O)N[C@@H](CCCNC(=N)N)C(=O)N[C@H](C(=O)N[C@@H](CC(N)=O)C(=O)O)CSSC[C@H](NC(=O)[C@H](Cc1ccccc1)NC(=O)CN)C(=O)N[C@@H](Cc1c[nH]c3ccccc13)C(=O)N[C@@H](Cc1ccc(O)cc1)C(=O)N[C@@H](C(C)C)C(=O)N2 [NZ17160] (HELM PEPTIDE1{G.F.C.W.Y.V.C.V.K.R.N.G.V.R.S.C.Y.R.R.C.N}$PEPTIDE1,PEPTIDE1,3:R3-20:R3|PEPTIDE1,PEPTIDE1,7:R3-16:R3$$$V2.0)	1 µg/mL	64 µg/mL	0.125 µg/mL	0.25 µg/mL	0.5 µg/mL	>64 µg/mL	0.125 µg/mL (≈ 0.0487 µM)	> 300 µg/mL	> 250 µg/mL	> 300 µg/mL	>300 µg/mL	>300 µg/mL	>257 µg/mL	>250 µg/mL	>300 µg/mL	>300 µg/mL	>300 µg/mL	>300 µg/mL
CC(C)[C@@H]1NC(=O)CNC(=O)[C@H](CC(N)=O)NC(=O)[C@H](CCCNC(=N)N)NC(=O)[C@H](Cc2ccc(O)cc2)NC(=O)[C@H](C(C)C)NC(=O)[C@@H]2CSSC[C@H](NC(=O)[C@H](C(C)C)NC(=O)[C@H](CCCNC(=N)N)NC1=O)C(=O)N[C@@H](Cc1ccc(O)cc1)C(=O)N[C@@H](CCCNC(=N)N)C(=O)N[C@@H](CCCNC(=N)N)C(=O)N[C@H](C(=O)N[C@@H](CC(N)=O)C(=O)O)CSSC[C@H](NC(=O)[C@H](Cc1ccccc1)NC(=O)CN)C(=O)N[C@@H](Cc1c[nH]c3ccccc13)C(=O)N[C@@H](CCCNC(=N)N)C(=O)N[C@@H](C)C(=O)N2 [NZ17230] (HELM PEPTIDE1{G.F.C.W.R.A.C.V.Y.R.N.G.V.R.V.C.Y.R.R.C.N}$PEPTIDE1,PEPTIDE1,3:R3-20:R3|PEPTIDE1,PEPTIDE1,7:R3-16:R3$$$V2.0)	0.5 µg/mL	64 µg/mL		0.25 µg/mL	0.25 µg/mL	64 µg/mL	0.25 µg/mL (≈ 0.097 µM)	223 µg/mL (≈ 86.5 µM)	> 250 µg/mL	> 300 µg/mL		223 µg/mL (≈ 86.5 µM)	>258 µg/mL	>250 µg/mL	>300 µg/mL	>300 µg/mL	>300 µg/mL	>300 µg/mL
